In PubChem BioAssay AID248 (DTP/NCI, 2004):
Where “and” joins values, the source holds several entries; their conditions need not be identical. Identical values can stand only once. Inconclusive results and toxic doses are left out. No stated cut-off is given here; in the data, active means T/C of 150% or more; inactive means T/C below 125%.

System: L1210 leukemia ip in BDF1 mice, survival T/C
Assay: NCI In Vivo Anticancer Drug Screen. Data for tumor model L1210 Leukemia (intraperitoneal) in B6D2F1 (BDF1) mice
Conditions: endpoint: mean survival time, higher = longer survival
Outline: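 Mice bearing the transplanted tumor received compound or vehicle. Survival of the treated group was divided by that of the vehicle-treated control group to give the ratio.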

[1] = dose: 100.0 mg/kg/injection, schedule: Q04DX002 (ip), vehicle: Klucel (hydroxypropylcellulose) (HPC)
[2] = dose: 200.0 mg/kg/injection, schedule: Q04DX002 (ip), vehicle: Klucel (hydroxypropylcellulose) (HPC)
[3] = dose: 400.0 mg/kg/injection, schedule: Q04DX002 (ip), vehicle: Klucel (hydroxypropylcellulose) (HPC)
[4] = dose: 100.0 mg/kg/injection, schedule: Q04DX002 (ip), vehicle: saline with Tween-80
[5] = dose: 12.5 mg/kg/injection, schedule: Q01DX009 (ip), vehicle: saline
[6] = dose: 12.5 mg/kg/injection, schedule: Q04DX003 (ip), vehicle: saline
[7] = dose: 25.0 mg/kg/injection, schedule: Q01DX009 (ip), vehicle: saline
[8] = dose: 25.0 mg/kg/injection, schedule: Q04DX003 (ip), vehicle: saline
[9] = dose: 50.0 mg/kg/injection, schedule: Q01DX009 (ip), vehicle: saline
[10] = dose: 50.0 mg/kg/injection, schedule: Q04DX003 (ip), vehicle: saline
[11] = dose: 100.0 mg/kg/injection, schedule: Q01DX009 (ip), vehicle: Klucel (hydroxypropylcellulose) (HPC)
[12] = dose: 200.0 mg/kg/injection, schedule: Q01DX009 (ip), vehicle: Klucel (hydroxypropylcellulose) (HPC)
[13] = dose: 400.0 mg/kg/injection, schedule: Q01DX009 (ip), vehicle: Klucel (hydroxypropylcellulose) (HPC)
[14] = dose: 100.0 mg/kg/injection, schedule: Q01DX001 (ip), vehicle: saline
[15] = dose: 200.0 mg/kg/injection, schedule: Q01DX001 (ip), vehicle: saline
[16] = dose: 400.0 mg/kg/injection, schedule: Q01DX001 (ip), vehicle: saline
[17] = dose: 100.0 mg/kg/injection, schedule: Q04DX003 (ip), vehicle: Klucel (hydroxypropylcellulose) (HPC)
[18] = dose: 200.0 mg/kg/injection, schedule: Q04DX003 (ip), vehicle: Klucel (hydroxypropylcellulose) (HPC)
[19] = dose: 100.0 mg/kg/injection, schedule: Q01DX009 (ip), vehicle: saline
[20] = dose: 200.0 mg/kg/injection, schedule: Q01DX009 (ip), vehicle: saline
[21] = dose: 400.0 mg/kg/injection, schedule: Q04DX003 (ip), vehicle: Klucel (hydroxypropylcellulose) (HPC)
[22] = dose: 100.0 mg/kg/injection, schedule: Q01DX001 (ip), vehicle: carboxymethylcellulose (CMC)
[23] = dose: 200.0 mg/kg/injection, schedule: Q01DX001 (ip), vehicle: carboxymethylcellulose (CMC)
[24] = dose: 400.0 mg/kg/injection, schedule: Q01DX001 (ip), vehicle: carboxymethylcellulose (CMC)

Measured: T/C

Nc1nc(N)nc(C(c2ccccc2)c2ccccc2)n1
inactive: [1] 103 % of control | [2] 94 % of control | [3] 87 % of control

CC(CNC(=O)OCc1ccccc1)C(=O)O (configuration not stated)
inactive: dose: 100.0 mg/kg/injection, schedule: Q01DX001 (ip), vehicle: saline with Tween-80 95 % of control | dose: 100.0 mg/kg/injection, schedule: Q01DX009 (ip), vehicle: saline with Tween-80 105 % of control and 117 % of control | [4] 103 % of control | dose: 100.0 mg/kg/injection, schedule: Q04DX003 (ip), vehicle: saline with Tween-80 96 % of control | dose: 200.0 mg/kg/injection, schedule: Q01DX001 (ip), vehicle: saline with Tween-80 93 % of control | dose: 200.0 mg/kg/injection, schedule: Q01DX009 (ip), vehicle: saline with Tween-80 105 % of control and 86 % of control | dose: 200.0 mg/kg/injection, schedule: Q04DX002 (ip), vehicle: saline with Tween-80 100 % of control | dose: 200.0 mg/kg/injection, schedule: Q04DX003 (ip), vehicle: saline with Tween-80 91 % of control | dose: 400.0 mg/kg/injection, schedule: Q01DX001 (ip), vehicle: saline with Tween-80 96 % of control | dose: 400.0 mg/kg/injection, schedule: Q01DX009 (ip), vehicle: saline with Tween-80 94 % of control and 105 % of control | dose: 400.0 mg/kg/injection, schedule: Q04DX002 (ip), vehicle: saline with Tween-80 110 % of control | dose: 400.0 mg/kg/injection, schedule: Q04DX003 (ip), vehicle: saline with Tween-80 95 % of control

CCN(CC)CCC(CNC(=O)CN(CC)CC)(c1cccc2ccccc12)C(C)C (configuration not stated)
inactive: [5] 98 % of control | [6] 94 % of control | [7] 93 % of control | [8] 110 % of control | [9] 90 % of control | [10] 104 % of control

O=C(Oc1c(Cl)cc(Cl)cc1C=Nc1ccc(Cl)cc1)c1ccccc1
inactive: [11] 103 % of control | [12] 104 % of control | [13] 96 % of control

CCOC(=O)N1CCN(P(=O)(c2ccccc2)N2CCN(C(=O)OCC)CC2)CC1
inactive: [11] 93 % of control | [12] 93 % of control | [13] 96 % of control

CC1=NN(c2ccccc2)C(=O)C1N=Nc1ccccc1S(=O)(=O)O (configuration not stated)
inactive: [14] 96 % of control | [15] 94 % of control | [16] 102 % of control

COc1ccc(NC(=O)c2ccco2)cc1
inactive: [1] 123 % of control | [2] 112 % of control | [3] 123 % of control

CC(C)=CCNC1=NCCN1
inactive: [5] 91 % of control | [7] 94 % of control | [9] 99 % of control

CCCCCCCCCCCCCCCC[N+]1(CCCC)CCOCC1
inactive: [17] 86 % of control | [18] 101 % of control

CCCC[CH2][Sn](=[O])[CH2]CCCC
inactive: [6] 101 % of control | [8] 101 % of control | [10] 108 % of control | [14] 109 % of control | [15] 104 % of control | [16] 98 % of control

CCOC(=O)C[P+](c1cccc(OC)c1)(c1cccc(OC)c1)c1cccc(OC)c1
inactive: dose: 15.0 mg/kg/injection, schedule: Q01DX001 (ip), vehicle: carboxymethylcellulose (CMC) 90 % of control | dose: 30.0 mg/kg/injection, schedule: Q01DX001 (ip), vehicle: carboxymethylcellulose (CMC) 91 % of control

CCc1ccccc1NC(=O)N1CCN(C)CC1
inactive: [19] 104 % of control | [20] 92 % of control

CCCCOP(=O)(OCCCC)C(c1ccccc1)(c1ccccc1)c1ccccc1
inactive: [17] 91 % of control | [18] 94 % of control | [21] 96 % of control

Cc1cc(CSC2=NCCN2)c(C)cc1CSC1=NCCN1
inactive: dose: 25.0 mg/kg/injection, schedule: Q04DX002 (ip), vehicle: saline with Tween-80 111 % of control | dose: 50.0 mg/kg/injection, schedule: Q04DX002 (ip), vehicle: saline with Tween-80 100 % of control | [4] 101 % of control and 109 % of control

CC(C)N=Cc1ccccc1O.CC(C)N=Cc1ccccc1O.[Co]
inactive: dose: 100.0 mg/kg/injection, schedule: Q01DX009 (ip), vehicle: saline sonified 108 % of control | [17] 103 % of control | dose: 200.0 mg/kg/injection, schedule: Q01DX009 (ip), vehicle: saline sonified 100 % of control | [18] 99 % of control | [21] 100 % of control

CCCCCCCCCCNC(=O)CI
inactive: [14] 100 % of control | [15] 94 % of control

COc1cc(F)cc([N+](=O)[O-])c1
inactive: [22] 95 % of control | [23] 97 % of control | [24] 97 % of control

O=C(C[N+]12CN3CN(CN(C3)C1)C2)c1ccc(Cl)cc1
inactive: dose: 40.0 mg/kg/injection, schedule: Q01DX Z (ip), vehicle: saline 98 % of control | dose: 44.0 mg/kg/injection, schedule: Q01DX Z (ip), vehicle: carboxymethylcellulose (CMC) 109 % of control | dose: 50.0 mg/kg/injection, schedule: Q01DX001 (ip), vehicle: carboxymethylcellulose (CMC) 107 % of control | dose: 60.0 mg/kg/injection, schedule: Q01DX Z (ip), vehicle: saline 107 % of control | dose: 73.0 mg/kg/injection, schedule: Q01DX Z (ip), vehicle: carboxymethylcellulose (CMC) 110 % of control | dose: 90.0 mg/kg/injection, schedule: Q01DX Z (ip), vehicle: saline 109 % of control | [22] 102 % of control | dose: 110.0 mg/kg/injection, schedule: Q01DX Z (ip), vehicle: carboxymethylcellulose (CMC) 113 % of control | dose: 135.0 mg/kg/injection, schedule: Q01DX Z (ip), vehicle: saline 109 % of control | dose: 165.0 mg/kg/injection, schedule: Q01DX Z (ip), vehicle: carboxymethylcellulose (CMC) 115 % of control | [23] 100 % of control | dose: 202.5 mg/kg/injection, schedule: Q01DX Z (ip), vehicle: saline 112 % of control | dose: 303.7 mg/kg/injection, schedule: Q01DX Z (ip), vehicle: saline 113 % of control | [24] 107 % of control

CCOP(=O)(OCC)OCCCN(CC)CC
inactive: [9] 101 % of control | [19] 96 % of control and 114 % of control | dose: 100.0 mg/kg/injection, schedule: Q04DX003 (ip), vehicle: saline 101 % of control | [20] 94 % of control and 105 % of control | dose: 200.0 mg/kg/injection, schedule: Q04DX003 (ip), vehicle: saline 98 % of control

COc1ccc(-c2c(C)c(C(=O)O)nc(-c3ccc4c(O)c(OC)c5c(c4n3)=NC(C)(C)N=5)c2N)c(O)c1OC
inactive: dose: 4.5 mg/kg/injection, schedule: Q01DX Z (ip), vehicle: water 104 % of control | dose: 6.7 mg/kg/injection, schedule: Q01DX Z (ip), vehicle: water 97 % of control | dose: 10.0 mg/kg/injection, schedule: Q01DX Z (ip), vehicle: water 111 % of control | dose: 15.0 mg/kg/injection, schedule: Q01DX Z (ip), vehicle: water 103 % of control
